# Experimental data published in patent US20040043403A1, “Process for determining the biological activity of epidermal growth factor receptor tyrosine kinase inhibitors” (priority 2000, published 2004).
# Columns and labels:
# WBC = assay: Real time RT-PCR gene expression in White Blood Cells; assay type: cell-based, human; conditions: 3 μM, 24 h
# Description: The leucocyte-enriched fraction (buffy coat) is obtained from a healthy donor. 10 ml buffy coat, diluted with 25 ml RPMI 1640 medium is layered on 4 ml Ficoll-Paque (Pharmacia) and centrifuged at 1′200×g for 15 min. The White Blood Cell (WBC) layer at the interface is removed, the cells are washed 2 times with RPMI 1640 medium to remove platelets. WBCs are cultured in RPMI 1640 medium plus 10% Fetal Calf Serum (FCS) in T-150 flask, 100 million cells/100 ml and are incubated for 1 h at 37° C. before treatment. 20 million tissue culture cells (about 80% confluent) or 200 million WBCs are incubated for 2 or 24 h in culture medium containing 3 μM of an EGFR tyrosine kinase inhibitor or 0.03% DMSO. Total RNA from cell pellet is isolated using the RNeasy kit (Qiagen). mRNA is isolated using the oligotex mRNA purification kit (Qiagen). The quality of the obtained mRNA is tested by real time RT-PCR using beta-Actin primers (PE Applied Biosystems) with an amplicon size of 300 base pairs (bp). The total RNA is used as a reference to calculate the amount of mRNA-enrichment in the oligotex purified samples. The primers and probes are designed from mRNA sequences within the coding region or in the 3′ untranslated region (Table 2). For real time RT-PCR, RNA concentrations between 1 and 50 ng/reaction are used to obtain signals between 15-35 cycles. For each RNA preparation RT-PCR reactions are performed with and without reverse transcriptase to check for genomic DNA contamination. In all RNA samples tested, genomic DNA contamination is less than 1%. To normalize for variability in the initial concentration and quality of the total RNA, Glyceraldehyde-3-phosphate dehydrogenase (GAPDH) is used as an endogenous reference in all quantification experiments. For RT-PCR a one step, two-enzyme system is chosen. The TaqMan PCR Core Reagent Kit (PE #N808-0228) plus the reverse transcriptase MuLV (PE Biosystems # N808-0018) and RNase inhibitor (Roche Diagnostics # 799 025) are mixed as described in the manufacturers protocol. Triplicate measurements are done for target and for reference reactions. […] RT-PCR reactions are done with RNA concentrations of 2.5, 5, 10, 20, 40 and 80 ng per reaction. The absolute value of the slope of (log input amount) vs. ΔCT should be <0.1. The ΔCT value is determined by subtracting the average reference CT values from the average target CT values of the three measurements. Relative quantification is performed in triplicates, reference and target, using the RT-PCR protocol described above. […] Expression levels for the three genes, calculated relative to NCI-H520, show big differences between the various cell types (Table 5). […]
# A431 cells = assay: Western blot of clusterin induction in A431 cells; assay type: cell-based, human
# Description: An EGFR tyrosine kinase inhibitor is dissolved in DMSO to obtain a 10 mM stock solution. The stock solution is further diluted in culture medium to final concentrations of 10 nM to 3 μM. 3.5 million cells/100 mm dish/12 ml culture medium are incubated for 24 h in 5% CO2 at 37° C. The medium is replaced with medium containing the EGFR tyrosine kinase inhibitor or DMSO. Cells are incubated for 4 to 32 h. The frozen pellets are lysed in 500 μl of lysis buffer (50 mM Tris-HCl pH 7.5, 1% Sodium Dodecyl Sulfate (SDS)). To shear genomic DNA, the cell lysates are processed in a FastPrep instrument for 20 sec at a speed rating of 4, using the green […] tubes (Bio101#6040-6010). Protein concentrations are determined according to the PIERCE-method (BCA Protein Assay, Reagent A and B). Protein concentration of lysates is adjusted to 1 μg/μl with lysis buffer. 4 parts of cell lysates are mixed with 1 part of 5 fold concentrated Laemmli buffer, the lysates are stored at -20° C. 40 μl of cell lysate is heated for 3 min to 95° C. and directly loaded on to 10% or 15% SDS-PAGE gels. The gels are run at 130 V for 90 min under standard conditions. The separated proteins are semi-dry blotted on to a PVDF membrane (Immobilon-P, Millipore #IPVH 202 00) for 70 min with 45 mA per blot. Immediately after the transfer the blots are incubated in Blotto A (5% skim milk powder in Tris Buffered Saline (TBS)/0.05% Tween-20) for 1 h at room temperature on a rotating platform. The blots are then washed three times in TBS/0.05% Tween-20. The blots are incubated […] with 0.2 μg/ml of e.g. goat anti-human clusterin (C-18) antibody (Santa Cruz, sc-6419) in Blotto A for 1.5 h at room temperature on a rotating platform. The control blots are incubated with 0.2 μg/ml of mouse anti-human-actin (C-2) antibody (Santa Cruz, sc-8432). The blots are washed three times with TBS/0.05% Tween-20. […]
# EGFR tyrosine kinase = EGFR tyrosine kinase (Homo sapiens, UniProt P00533); conditions: disclosed in WO 97/02266; cited from earlier work
# [1] = system: Epidermal Growth Factor (EGF)-responsive tumors; conditions: disclosed in WO 97/02266; cited from earlier work
# [2] = WBC, relative to DMSO-treated NCI-H520 calibrator
# Sequence of EGFR tyrosine kinase (P00533 669-1210 limits assumed): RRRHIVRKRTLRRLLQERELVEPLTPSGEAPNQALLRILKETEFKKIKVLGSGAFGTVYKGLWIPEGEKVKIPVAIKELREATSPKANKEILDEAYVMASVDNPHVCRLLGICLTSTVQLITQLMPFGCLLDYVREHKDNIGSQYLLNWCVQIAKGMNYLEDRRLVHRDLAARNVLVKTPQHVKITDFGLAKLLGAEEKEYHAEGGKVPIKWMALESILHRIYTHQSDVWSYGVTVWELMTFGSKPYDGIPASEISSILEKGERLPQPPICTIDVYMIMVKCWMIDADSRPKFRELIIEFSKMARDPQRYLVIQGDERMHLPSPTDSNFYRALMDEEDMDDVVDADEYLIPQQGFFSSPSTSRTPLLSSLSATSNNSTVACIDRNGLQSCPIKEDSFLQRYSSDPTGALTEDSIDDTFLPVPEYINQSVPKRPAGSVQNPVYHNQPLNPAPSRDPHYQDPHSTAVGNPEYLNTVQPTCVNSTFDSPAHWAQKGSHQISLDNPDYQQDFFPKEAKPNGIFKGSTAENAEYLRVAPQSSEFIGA
compound,measurement,setting,value
"C[C@@H](Nc1ncnc2[nH]c(-c3ccc(O)cc3)cc12)c1ccccc1 [COMPOUND A, (R)-6-(4-hydroxy-phenyl)-4-[(1-phenyl-ethyl)-amino]-7H-pyrrolo[2,3-d]pyrimidine]",Relative Clusterin expression,WBC; [2],2.03 n-fold
same,Relative TRAIL expression,WBC; [2],22.73 n-fold
same,Relative VAC-beta expression,WBC; [2],2.16 n-fold
same,TRAIL repression in WBCs,"WBC; WBCs, versus DMSO",2.5 fold
same,"Clusterin induction, Western blot (FIG. 4)","A431 cells; A431 cells (high levels of EGFR), 300 nM, 24 h, vs 0.03% DMSO",strong clusterin expression signals
same,Concentration at which the 43 kDa clusterin signals reach a maximum (FIG. 2),"A431 cells; A431 cells, 10 nM to 1 μM, 24 h, signals increase with concentration",300 nM
same,Time course of clusterin protein induction (FIG. 3),"A431 cells; A431 cells, 300 nM, 4, 8, 16, 24 and 32 h",continuous increase of clusterin signal from 16 h to 32 h
same,Inhibition of the EGFR tyrosine kinase,EGFR tyrosine kinase,potent and selective inhibitor
same,Anti-proliferative activity against EGF-responsive tumors,[1],exhibits anti-proliferative activity
